Experimental data: a melting point compilation (Tetko et al.)

Structure (SMILES)	melting point [°C]
O=C(O)C1CC1[N+](=O)[O-] (stereo unspecified)	123 to 125
Cc1nn(-c2ccccc2Cl)c(C(F)F)c1C(=O)O	204 to 206
O=S(=O)(Nc1cc(F)cc(F)c1)c1ccc(Cl)nc1	199 to 201
O=Cc1cn(-c2ccccc2)nc1-c1cccc(Br)c1	91 to 93
Cc1nc(-c2ccc(Br)cc2)sc1C(C)O (stereo unspecified)	119 to 121
Nc1cc(OCC(F)(F)F)cc(OCC(F)(F)F)c1	50 to 52
CC(=O)c1ccc2cc(O)ccc2c1	170 to 172
COc1ccc(C(=O)O)cc1S(=O)(=O)Nc1ccc(C)cc1	258 to 260
O=C(O)C1CCCN1c1ncccn1 (stereo unspecified)	139 to 141
COc1ccc(N)cc1NS(C)(=O)=O	125 to 127
Nc1ccc(OC(F)F)c2ncccc12	119 to 121
COc1cc(CC#N)ccc1OCC(F)(F)F	62 to 64
CC(=O)Oc1cc(C(=O)O)cc(OC(C)=O)c1OC(C)=O	163 to 165
Cc1cccc(OCC(=O)NN)c1	109 to 111
C=CC(=O)Nc1ccc(OCC)c(OC)c1	117 to 119
CN(CC(=O)O)C(N)=O	141 to 143
O=Cc1sc2ccccc2c1Cl	104 to 106
COC(=O)c1ccc(Cl)c(S(=O)(=O)Cl)c1	103 to 105
Cc1cc(NC(=O)CCl)n(-c2ccc(F)cc2)n1	128 to 130
Cc1ccnc(-n2cc(S(N)(=O)=O)cn2)c1	156 to 158
O=[N+]([O-])c1c(CCl)nc2ccccn12	152 to 154
O=C(O)c1cc(-c2c(F)cccc2F)no1	181 to 183
COc1cc(C=O)cc(OC)c1OC(C)=O	115 to 117
COc1cc(C=O)cc(Cl)c1O	162 to 166

Structure (SMILES)	melting point [°C]
Cc1nc(C)c(S(N)(=O)=O)s1	142 to 144
c1ccc2c(c1)NCCN2C1CC1	58 to 60
Brc1cnn(-c2nccs2)c1	78 to 80
O=Cc1ccc(-c2ccc([N+](=O)[O-])cc2Br)o1	132 to 136
CCOc1ccc(OCC(=O)O)cc1	125 to 130
O=C(CN1CCNCC1)Nc1cccc(F)c1	68 to 70
N#CCc1c[nH]c2ccc(F)cc12	54 to 56
NC(=S)CCN1C(=O)c2ccccc2C1=O	186 to 188
COC(=O)c1cc(N)cc(Cl)c1	95 to 97
O=C(O)C1=Nc2cccc3cccc(c23)N1	210 to 212
O=Cc1cccc2c1OCO2	34 to 36
COC(=O)C1=C(C)NC(C)=C(C(=O)OC)C1C(=O)O	128 to 130
COc1ccc(CNC(N)=S)cc1OC	191 to 193
Nc1ccc2cccc(Cl)c2n1	165 to 167
Cc1nn(C)c2ncc(CCl)cc12	171 to 173
Cc1sc2nc(N)[nH]c(=O)c2c1C	353 to 355
CC(C)(C)C(=O)N1CCCC1C(=O)O (stereo unspecified)	136 to 138
NS(=O)(=O)c1nccs1	119 to 121
CCN1N=C(C(=O)O)CC1=O	256 to 258
Cc1cc(C)nc(NCc2cccc(C(=O)O)c2)n1	224 to 226
CCC(C)c1ccc(C(=O)O)cc1 (stereo unspecified)	88 to 90
NNC(=O)CN1CCCc2ccccc21	107 to 109
COC(=O)c1cnc(-c2ccccc2)s1	107 to 109
CN1CCc2ncnc(Cl)c2C1	67 to 69

Structure (SMILES)	melting point [°C]
CC(=O)N(c1ccc(Cl)cc1)c1nc(CCl)cs1	145 to 147
Cc1ccc(CC(=O)O)cc1C	96 to 98
Oc1ccc(Br)cc1-c1nn[nH]n1	188 to 190
CC(=O)NC1CCCN(C(=O)CCl)C1 (stereo unspecified)	110 to 112
O=C(O)c1ccc(S(=O)(=O)Nc2cccc(Cl)c2F)o1	151 to 153
COc1ccc(C(=O)N(C)C)cc1N	119 to 121
CC(N)=NS(=O)(=O)c1cc(Br)ccc1Br	182 to 184
COc1ccc(C(=O)O)cc1-c1ccc(C(C)(C)C)cc1	259 to 261
O=C1C=C(O)C(=O)c2ccccc21	192 to 194
O=C(O)c1cc([N+](=O)[O-])cc([N+](=O)[O-])c1F	204 to 206
O=C(O)c1cnns1	103 to 105
NC1CCS(=O)(=O)c2ccc(Cl)cc21 (stereo unspecified)	57 to 59
O=C(O)COc1ccccc1OCc1ccccc1	87 to 89
N#Cc1ccc(S(=O)(=O)N2CCC(O)CC2)cc1	161 to 163
OC(c1ccccc1)C1CCNCC1 (stereo unspecified)	171 to 173
O=C(O)c1ccc2c(c1)NC(=O)C1CCCN21 (stereo unspecified)	250 to 252
O=[N+]([O-])c1cc(C(F)(F)F)ccc1I	34 to 36
CC1CCC2(CC1)NC(=O)NC2=O (stereo unspecified)	230 to 232
CC(=O)c1ccc(S(=O)(=O)N2CCCCC2)cc1	139 to 142
Cc1cccn2cc(CC(N)=S)nc12	153 to 155
COc1cc(Br)c(S(=O)(=O)Cl)cc1OC	92 to 94
CN(C(=O)c1ccc(Cl)cc1)c1ccc(O)cc1	205 to 207
Nc1cccc(-c2nnc[nH]2)c1	182 to 184
